Series [1] deals with MCF-7 cancer cells. The series can be described thus: Sulforhodamine B (SRB) growth inhibition assay. Type of series: cell-based. The following applies: Homo sapiens, MCF7, 24 h treatment, mean of triplicate, SD <10%. How it is done: (§1) Various compounds were tested to evaluate the dose response curve for effect on MCF-7 cancer cells and MDA-MB-231 cancer cells. MCF-7 and MDA-MB-231 cells were cultured in 10% Minimum Essential Medium Eagle (MEME) supplemented with Earle's Balanced Salt Solution (EBSS), Non-essential Amino acids (NEAA), Sodium pyruvate, Pen/Strep, L-glutamine and Fetal Bovine Serum (FBS) at 37° C. in 5% CO2.
(§2) Sulforhodamine B (SRB) Assay: A stock solution of compounds was prepared at 50 mM in 100% DMSO. For cells preparation, a flask of 75 cm^2 or 25 cm^2 were used for 2.6×10^5 cells or 1.44×10^5 cells respectively with an 80-90% of confluence. Cells were washed with PBS and trypsinized. The concentration of cells was determined using a 1:2 dilutions with Trypan Blue and a hemocytometer. After cell count, the concentration was adjusted to have a 1.9×10^4 cells/well. Approximately […] of cells suspension, compounds, control positive and control negative were added in triplicates to a 96 well plate. Positive controls used were ellipticine, doxorubicin, and/or vincristine, and the negative control was DMSO 0.1%. All compounds at 50, 25, 12.5, 6.3, and 1.6 μM were incubated with cells at 37° C. for 24 hrs. For fixation, cold TCA 50% was used and incubated at 4° C. for 1 hr. Wells were washed and dried prior to tincture with 100 μL of SRB 0.4%. To remove excess of SRB, acetic acid was used. For analysis, TRIS-BASE Solution (pH=10.5) was used and shacked prior to reading using an ELISA reader at 510 nm and the software SoftMax Pro 4.8.
(§3) For each compound, 50% growth inhibition (GI50) was calculated from Sigmoidal dose-response curves (variable-slope) that were generated with data obtained from experiments carried out in triplicates (GI50 values were generated with GraphPad Prism V. 6.02, GraphPad Software, Inc.). The results are presented in FIGS. 4A-4B (MCF-7 cancer cells) and FIGS. 5A-5B (MDA-MB-231 cancer cells).

The subject of series [2] is MDA-MB-231 breast cancer cells. The series can be described thus: Wound healing assay (scratch method), cell migration. Type of series: cell-based, human. Conditions: Homo sapiens, MDA-MB-231; for activity at 10 µM: percent relative migration at 10 μM after 24 h, relative to control; for inhibition at 10 µM: read-out: anti-migratory activity (inhibition of migration). How it is done:
The experimental data of anti-migratory activities for compounds 3a-d and 4a-f were obtained using MDA-MB-231 breast cancer cells. For the migration assay, a wound-healing assay (scratch-wound assay) was utilized in the presence of vehicle (0.02% DMSO) or compounds at […].
Prior to assays, cells were grown until 80-90% confluence was observed. A 75 cm2 flask was used for 2.6×10^5 cells/mL in 10 mL and for a 25 cm2 flask 1.44×10^5 cells/mL in 5 mL. The cells were washed with PBS to remove all traces of FBS. 2 mL was added for a 25 cm2 flasks or 4 mL for a 75 cm2 flasks trypsin, and incubated 5-10 min at 37° C. At the end of the incubation time, cells were re-suspended and counted with hemocytometer using 1:2 dilutions with Trypan blue. Subsequently, cell viability was calculated. In a 12 multiwell plate, the plastic pattern was used to draw a fine space with a fine marker on the bottom of the plate. Cells were seeded at 1.5-2.2×10^5 cells/mL in 1 mL and incubated for 24 h. Cells were then rinsed with PBS and incubated in starving media (0.5% FBS) overnight. All controls and drugs were tested in triplicate. The negative control for each drug was prepared according to the drug's DMSO concentration.
Drugs were diluted and the final concentration at each well […]. The wound was made using a sterile pipette tip of […]. Cells were then rinsed very gently with media without FBS and media with negative controls was added. After a 24 h incubation, the gap distance was evaluated using the software Lumera Infinity Analyze 6.4.0. Pictures were taken at 0, 8, 12 and 24 h using a 10× objective. The percentage of migration was calculated using the following formula: 100−[(X0/X0)]*100 for time 0 h measurements 100−[(X24/X0)]*100 for time 24 h measurements
The experimental data of anti-migratory activities for compounds 3a-d and 4a-f were obtained using MDA-MB-231 breast cancer cells, and results are summarized in Table 1. For the migration assay, we used a wound-healing assay (scratch-wound assay)^22 in the presence of vehicle (0.02% DMSO) or compounds at 10 μM (FIG. 6). […] However, compounds 3a, 3c, and 4a-f inhibited migration in the range of 1-9%.
An additional example of a compounds with modification in building block C was synthesized via a different procedure as represented in Scheme 2B (see FIG. 11B). The compounds that were synthesized were tested for their biological activity by determination of their cytotoxicity in MDA-MB-231 breast cancer cell lines as shown in Table 5. The cytotoxicity's are expressed as IC50, which indicates the concentration at which 50% of the cell growth is inhibited. Furthermore, the inhibition of cell migration was tested at a concentration of 0.2×IC50, or, when the IC50 was >50 μM at a concentration of 10 μM. For comparison, Table 5 also includes the Lipinski and drug-likeness parameters as calculated via the MolSoft platform.
Migration assays were performed via the Scratch Method as described previously.

Series [3] relates to MDA-MB-231 cancer cells. Put plainly: Sulforhodamine B (SRB) growth inhibition assay. Type of series: cell-based, human. Conditions: for GI50: Homo sapiens, MDA-MB-231, SRB assay, 24 h treatment, mean of triplicate, SD <10%; for anti-proliferative activity / cytotoxicity in words: MDA-MB-231, concentrations ≤50 μM. How it is done: as §1, §2, §3

Where two headings read alike, the source gives them in different places.

The source of these data is US11446299B2, “Carbazole EHop-016 derivatives as anticancer and anti-migratory agents” (UNIVERSITY OF PUERTO RICO, priority 2017, dated 2022).

The GI50 is the concentration giving 50% growth inhibition. `CCn1c2ccccc2c2cc(NC(=O)c3cccnc3N3CCN(C(C)=O)CC3)ccc21` [Compound 3a, 2-(4-acetylpiperazin-1-yl)-N-(9-ethyl-9H-carbazol-3-yl)nicotinamide]: the GI50 in series [1] and in series [3] was > 50 µM each time. For the same compound, in series [2], the activity at 10 µM is 93 ± 11.7%.
As to `CCn1c2ccccc2c2cc(NC(=O)c3cccnc3N3CCOCC3)ccc21` [Compound 3b, N-(9-ethyl-9H-carbazol-3-yl)-2-morpholinonicotinamide], the GI50 in series [1] and in series [3] was > 50 µM throughout. In addition, the inhibition at 10 µM in series [2] turned out to be 32%; in series [2] (at 10 μM, 24 h), 32%. This compound gave an activity at 10 µM in series [2] of 68 ± 10.5%. Also, in series [3], the “anti-proliferative activity / cytotoxicity in words” value is recorded as “no anti-proliferative activity”. In addition, the “anti-proliferative activity in words” value in series [3] (MDA-MB-231 at <50 pM as printed) is “minor anti-proliferative activity”.
For `CCn1c2ccccc2c2cc(NC(=O)c3cccnc3N3CCN(c4ccccc4)CC3)ccc21` [Compound 3c, N-(9-ethyl-9H-carbazol-3-yl)-2-(4-phenylpiperazin-1-yl)nicotinamide], the GI50 in series [1] and in series [3] was > 50 µM in each case. In series [2], this compound displayed an activity at 10 µM of 99 ± 1.89%.
For `CCn1c2ccccc2c2cc(NC(=O)c3cccnc3NCCCN3CCOCC3)ccc21` [Compound 3d], the GI50 in series [1] is > 50 µM; in series [3], 19 µM. Also, the inhibition at 10 µM in series [2] worked out at 24%; in series [2] (at 10 μM, 24 h), 24%. Moreover, the activity at 10 µM in series [2] is 76 ± 7.87%.
For the compound `CCn1c2ccccc2c2cc(Nc3ncccc3C(=O)NCCCN3CCOCC3)ccc21` [Compound 4a, 2-(9-ethyl-9H-carbazol-3-ylamino)-N-(3-norpholinopropyl)nicotinamide], the GI50 in series [1] was 28 µM; in series [3] it was > 50 µM. In addition, the activity at 10 µM in series [2] is 99 ± 1.28%.
For `CCn1c2ccccc2c2cc(Nc3ncccc3C(=O)NCCN3CCN(C(=O)OC(C)(C)C)CC3)ccc21` [Compound 4b] the same measures were > 50 µM, > 50 µM and 95 ± 9.8%.
Turning to `CCn1c2ccccc2c2cc(Nc3ncccc3C(=O)NCCCn3ccnc3)ccc21` [Compound 4c, N-(3-(1H-imidazol-1-yl)propyl)-2-((9-ethyl-9H-carbazol-3-yl)amino)nicotinamide], the GI50 in series [1] is 27 µM; in series [3], > 50 µM. Moreover, in series [2], the activity at 10 µM is 93 ± 2.01%.
Taken in the same sequence, the figures for `CCN(CC)CCCC(C)NC(=O)c1cccnc1Nc1ccc2c(c1)c1ccccc1n2CC` (stereo not shown) [Compound 4d, N-(4-Diethylamino-1-methyl-butyl)-2-(9-ethyl-9H-carbazol-3-ylamino)-nicotinamide] were 13 µM, 18 µM and 91 ± 14.1%.
For `CCN(CC)CCNC(=O)c1cccnc1Nc1ccc2c(c1)c1ccccc1n2CC` [Compound 4e, N-(2-(diethylamino)ethyl)-2-((9-ethyl-9H-carbazol-3-yl)amino)nicotinamide] the same measures were 14 µM, 18 µM and 99 ± 4.12%.
As for `CCn1c2ccccc2c2cc(Nc3ncccc3C(=O)Nc3cc(OC)c(OC)c(OC)c3)ccc21` [Compound 4f, 2-((9-ethyl-9H-carbazol-3-yl)amino)-N-(3,4,5-trimethoxyphenyl)nicotinamide], the GI50 in series [1] and in series [3] was > 50 µM each time. Also, in series [2], the activity at 10 µM was found to be 92 ± 8.55%.
Regarding `CCn1c2ccccc2c2cc(Nc3ncccc3NC(=O)CCN3CCCCC3)ccc21` [Compound 7a, N-[2-(9-Ethyl-9H-carbazol-3-ylamino)-pyridin-3-yl]-3-piperidin-1-yl-propionamide], the GI50 in series [1] stood at 15 µM; in series [3], 23 µM. In addition, the activity at 10 µM in series [2] was 99 ± 4.29%.
Taken in the same sequence, the figures for `CCn1c2ccccc2c2cc(Nc3ncccc3NC(=O)c3cccnc3)ccc21` [Compound 7b, N-(2-((9-ethyl-9H-carbazol-3-yl)amino)pyridin-3-yl)nicotinamide] were 41 µM, 31 µM and 81 ± 11.1%.
Take `CCn1c2ccccc2c2cc(Nc3ncccc3NCC(=O)N3CCOCC3)ccc21` [Compound 7c]: the GI50 was 23 µM in series [1] and > 50 µM in series [3]. The activity at 10 µM in series [2] was 81 ± 8.27%. Moreover, the “anti-proliferative activity / cytotoxicity in words” value in series [3] is recorded as “minimal cytotoxicity”.
Consider `CCn1c2ccccc2c2cc(C(=O)Nc3cccnc3NCCCN3CCOCC3)ccc21` [Compound 11a, 9-Ethyl-9H-carbazole-3-carboxylic Acid [2-(3-morpholin-4-yl-propylamino)-pyridin-3-yl]-amide], for which the GI50 in series [1] came out at 32 µM; in series [3], 39 µM. For the same compound, in series [2], the activity at 10 µM is 89 ± 10.1%.
With `CCn1c2ccccc2c2cc(NC(=O)c3nccnc3C(=O)NCCN3CCOCC3)ccc21` [Compound 14a, N^2-(9-ethyl-9H-carbazol-3-yl)-N^3-(2morpholinoethyl)pyrazine-2,3-dicarboxamide], the GI50 in series [1] and in series [3] was > 50 µM each time. Besides, in series [2], the activity at 10 µM is 91 ± 5.23%.
Consider `CCn1c2ccccc2c2cc(NC(=O)c3nccnc3C(=O)NCCCN3CCOCC3)ccc21` [Compound 14b, N^2-(9-ethyl-9H-carbazol-3-yl)-N^3-(3-morpholinopropyl)pyrazine-2,3-dicarboxamide], for which the GI50 in series [1] and in series [3] was > 50 µM in each case. This compound also returned an activity at 10 µM in series [2] of 94 ± 5.87%.
As for `CCn1c2ccccc2c2cc(NC(=O)c3nccnc3C(=O)NCCCn3ccnc3)ccc21` [Compound 14c, Pyrazine-2,3-dicarboxylic acid 2-[(9-ethyl-9H-carbazol-3-yl)-amide]-3-[(3-imidazol-1-yl-propyl)-amide]], the GI50 in series [1] and in series [3] was > 50 µM each time. For the same compound, the activity at 10 µM in series [2] is 99 ± 4.5%.
For the compound `CCn1c2ccccc2c2cc(NC(=O)c3nccnc3C(=O)NCCOC)ccc21` [Compound 14d, N^2-(9-ethyl-9H-carbazol-3-yl)-N^3-(2-methoxyethyl)pyrazine-2,3-dicarboxamide], the GI50 in series [1] and in series [3] was > 50 µM throughout. The activity at 10 µM in series [2] was 100 ± 5.2%.
Regarding `CCn1c2ccccc2c2cc(NC(=O)c3ccccc3C(=O)NCCOC)ccc21` [Compound 14e, N^1-(9-ethyl-9H-carbazol-3-yl)-N^2-(2-methoxyethyl)phthalamide], the GI50 in series [1] and in series [3] was > 50 µM each time. This compound also displayed an activity at 10 µM in series [2] of 99 ± 2.57%.
